According to the kinase profiling compilation of Christmann-Franck et al. (2016):

Legend:
Assay in all cases: KINOMEscan competition binding
Details in all cases: compound 10.0 µM
AKT3 (human) = AKT3 (human) (UniProt Q9Y243)
AXL (human) = AXL (human) (UniProt P30530)
BRSK2 (human) = BRSK2 (human) (UniProt Q8IWQ3)
BTK (human) = BTK (human) (UniProt Q06187)
CAMKK2 (human) = CAMKK2 (human) (UniProt Q96RR4)
CDC42BPA (human) = CDC42BPA (human) (UniProt Q5VT25)
CDK2 (human) = CDK2 (human) (UniProt P24941)
CDK5 (human) = CDK5 (human) (UniProt Q00535)
CDK5 (human), sequence (Q00535 whole entry, looked up): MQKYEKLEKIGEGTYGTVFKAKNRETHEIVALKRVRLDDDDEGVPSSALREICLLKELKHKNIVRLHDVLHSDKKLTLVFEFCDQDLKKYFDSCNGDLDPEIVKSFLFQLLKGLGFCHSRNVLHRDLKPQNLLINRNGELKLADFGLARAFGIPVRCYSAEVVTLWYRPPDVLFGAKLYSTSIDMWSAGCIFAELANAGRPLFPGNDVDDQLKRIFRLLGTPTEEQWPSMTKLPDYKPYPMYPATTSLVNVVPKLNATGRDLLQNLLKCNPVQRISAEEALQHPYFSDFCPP

CDK7 (human) = CDK7 (human) (UniProt P50613)
DDR1 (human) = DDR1 (human) (UniProt Q08345)
DYRK2 (human) = DYRK2 (human) (UniProt Q92630)
EPHA1 (human) = EPHA1 (human) (UniProt P21709)
EPHB4 (human) = EPHB4 (human) (UniProt P54760)
EPHB4 (human), sequence (P54760 whole entry, looked up): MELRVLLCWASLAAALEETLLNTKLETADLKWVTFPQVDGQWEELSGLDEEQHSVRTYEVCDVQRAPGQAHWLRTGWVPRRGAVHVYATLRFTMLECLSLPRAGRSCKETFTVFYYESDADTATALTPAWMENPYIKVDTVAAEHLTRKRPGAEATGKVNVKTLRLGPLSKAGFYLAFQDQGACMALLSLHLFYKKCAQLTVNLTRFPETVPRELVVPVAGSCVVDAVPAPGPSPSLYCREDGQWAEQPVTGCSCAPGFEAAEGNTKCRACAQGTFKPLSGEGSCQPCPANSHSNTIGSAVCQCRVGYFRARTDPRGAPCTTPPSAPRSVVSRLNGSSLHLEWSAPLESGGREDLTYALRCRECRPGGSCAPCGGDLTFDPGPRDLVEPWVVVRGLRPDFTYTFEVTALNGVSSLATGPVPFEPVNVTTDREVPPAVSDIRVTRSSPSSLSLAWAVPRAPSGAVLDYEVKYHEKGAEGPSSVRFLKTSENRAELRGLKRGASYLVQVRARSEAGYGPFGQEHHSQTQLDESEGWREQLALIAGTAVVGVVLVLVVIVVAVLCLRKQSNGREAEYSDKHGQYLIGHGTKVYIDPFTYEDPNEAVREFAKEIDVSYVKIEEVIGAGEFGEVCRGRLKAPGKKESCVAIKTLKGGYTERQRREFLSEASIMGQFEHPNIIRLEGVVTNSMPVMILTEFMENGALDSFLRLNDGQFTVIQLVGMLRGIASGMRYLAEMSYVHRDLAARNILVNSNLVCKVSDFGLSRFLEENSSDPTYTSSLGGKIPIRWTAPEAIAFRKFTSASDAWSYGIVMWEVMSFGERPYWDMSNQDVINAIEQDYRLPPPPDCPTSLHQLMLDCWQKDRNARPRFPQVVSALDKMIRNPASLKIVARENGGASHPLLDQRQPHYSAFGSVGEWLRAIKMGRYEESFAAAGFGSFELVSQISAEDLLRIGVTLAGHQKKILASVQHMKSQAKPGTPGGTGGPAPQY

ERN1 (human) = ERN1 (human) (UniProt O75460)
FLT3 (human) = FLT3 (human) (UniProt P36888)
[1] = test system: FLT3 (human), P36888 [D835H]
GRK4 (human) = GRK4 (human) (UniProt P32298)
IKBKE (human) = IKBKE (human) (UniProt Q14164)
ITK (human) = ITK (human) (UniProt Q08881)
LCK (human) = LCK (human) (UniProt P06239)
LIMK1 (human) = LIMK1 (human) (UniProt P53667)
MAP3K7 (human) = MAP3K7 (human) (UniProt O43318)
MAPK3 (human) = MAPK3 (human) (UniProt P27361)
MAPK4 (human) = MAPK4 (human) (UniProt P31152)
MAPK8 (human) = MAPK8 (human) (UniProt P45983)
MARK4 (human) = MARK4 (human) (UniProt Q96L34)
MELK (human) = MELK (human) (UniProt Q14680)
NIM1 (human) = NIM1 (human) (UniProt Q8IY84)
PIK3CB (human) = PIK3CB (human) (UniProt P42338)
PIM1 (human) = PIM1 (human) (UniProt P11309)
PIM1 (human), sequence (P11309 whole entry, looked up): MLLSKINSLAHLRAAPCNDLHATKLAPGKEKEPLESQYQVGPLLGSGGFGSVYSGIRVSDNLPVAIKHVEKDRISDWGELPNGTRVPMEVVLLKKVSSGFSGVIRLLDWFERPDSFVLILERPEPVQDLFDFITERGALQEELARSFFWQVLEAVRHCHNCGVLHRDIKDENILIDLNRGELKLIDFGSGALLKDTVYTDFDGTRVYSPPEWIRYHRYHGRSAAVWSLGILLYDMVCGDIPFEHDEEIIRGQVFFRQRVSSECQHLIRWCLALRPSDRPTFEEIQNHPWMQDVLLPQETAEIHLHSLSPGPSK

PLK4 (human) = PLK4 (human) (UniProt O00444)
PRKG1 (human) = PRKG1 (human) (UniProt Q13976)
[2] = test system: RET (human), P07949 [M918T]
RET (human), P07949 [M918T], sequence (P07949 whole entry M918T, looked up): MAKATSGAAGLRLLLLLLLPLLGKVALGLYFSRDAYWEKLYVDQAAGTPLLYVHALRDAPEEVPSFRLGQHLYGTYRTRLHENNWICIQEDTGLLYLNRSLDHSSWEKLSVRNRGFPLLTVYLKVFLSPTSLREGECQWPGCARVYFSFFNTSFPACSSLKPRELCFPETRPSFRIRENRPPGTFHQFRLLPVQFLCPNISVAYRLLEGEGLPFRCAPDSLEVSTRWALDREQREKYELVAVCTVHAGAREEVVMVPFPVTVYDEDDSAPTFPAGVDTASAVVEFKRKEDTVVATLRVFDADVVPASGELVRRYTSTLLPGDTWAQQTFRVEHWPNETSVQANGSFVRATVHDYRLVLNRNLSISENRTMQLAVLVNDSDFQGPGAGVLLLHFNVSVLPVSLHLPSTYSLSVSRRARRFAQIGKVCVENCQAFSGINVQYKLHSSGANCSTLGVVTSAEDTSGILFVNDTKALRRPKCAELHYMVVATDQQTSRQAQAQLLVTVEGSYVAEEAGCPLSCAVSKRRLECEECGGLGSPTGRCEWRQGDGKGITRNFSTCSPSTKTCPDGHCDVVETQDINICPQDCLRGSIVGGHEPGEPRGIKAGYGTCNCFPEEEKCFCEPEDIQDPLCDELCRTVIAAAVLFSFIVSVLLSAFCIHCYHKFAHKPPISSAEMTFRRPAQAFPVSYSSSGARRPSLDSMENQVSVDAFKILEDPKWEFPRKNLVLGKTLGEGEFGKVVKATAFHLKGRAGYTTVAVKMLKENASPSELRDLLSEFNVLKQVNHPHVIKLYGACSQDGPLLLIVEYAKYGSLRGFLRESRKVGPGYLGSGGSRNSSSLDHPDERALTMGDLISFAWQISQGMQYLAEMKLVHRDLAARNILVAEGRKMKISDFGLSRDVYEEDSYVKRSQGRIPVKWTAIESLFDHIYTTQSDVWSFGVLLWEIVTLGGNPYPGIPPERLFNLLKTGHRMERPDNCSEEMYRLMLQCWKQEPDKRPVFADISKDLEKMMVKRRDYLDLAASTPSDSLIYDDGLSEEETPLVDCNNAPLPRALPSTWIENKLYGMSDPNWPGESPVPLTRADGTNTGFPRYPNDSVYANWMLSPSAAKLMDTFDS

RIPK4 (human) = RIPK4 (human) (UniProt P57078)
RIPK4 (human), sequence (P57078 whole entry, looked up): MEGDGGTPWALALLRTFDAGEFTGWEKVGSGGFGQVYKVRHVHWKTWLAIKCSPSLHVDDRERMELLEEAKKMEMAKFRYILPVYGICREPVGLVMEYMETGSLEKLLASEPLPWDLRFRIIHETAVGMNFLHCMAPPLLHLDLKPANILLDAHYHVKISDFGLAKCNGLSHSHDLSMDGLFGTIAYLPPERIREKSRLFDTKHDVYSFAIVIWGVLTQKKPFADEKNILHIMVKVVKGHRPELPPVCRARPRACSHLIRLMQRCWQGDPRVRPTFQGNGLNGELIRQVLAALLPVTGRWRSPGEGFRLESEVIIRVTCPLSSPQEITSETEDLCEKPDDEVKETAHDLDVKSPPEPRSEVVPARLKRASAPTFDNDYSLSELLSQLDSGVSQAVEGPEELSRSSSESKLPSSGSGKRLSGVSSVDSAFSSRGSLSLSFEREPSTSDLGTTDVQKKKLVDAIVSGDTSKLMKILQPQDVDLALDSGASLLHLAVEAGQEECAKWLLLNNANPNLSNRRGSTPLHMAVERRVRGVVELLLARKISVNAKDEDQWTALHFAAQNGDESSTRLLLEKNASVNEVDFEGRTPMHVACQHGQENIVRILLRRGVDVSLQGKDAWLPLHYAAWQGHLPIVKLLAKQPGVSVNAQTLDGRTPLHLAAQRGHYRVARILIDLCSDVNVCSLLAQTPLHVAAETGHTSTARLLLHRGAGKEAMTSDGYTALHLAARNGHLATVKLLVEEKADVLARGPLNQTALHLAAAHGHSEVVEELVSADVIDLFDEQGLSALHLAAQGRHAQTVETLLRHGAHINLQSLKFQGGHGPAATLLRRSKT

RPS6KA4 KD1 (human) = RPS6KA4 KD1 (human) (UniProt O75676)
RPS6KA4 KD1 (human), sequence (O75676 whole entry, looked up): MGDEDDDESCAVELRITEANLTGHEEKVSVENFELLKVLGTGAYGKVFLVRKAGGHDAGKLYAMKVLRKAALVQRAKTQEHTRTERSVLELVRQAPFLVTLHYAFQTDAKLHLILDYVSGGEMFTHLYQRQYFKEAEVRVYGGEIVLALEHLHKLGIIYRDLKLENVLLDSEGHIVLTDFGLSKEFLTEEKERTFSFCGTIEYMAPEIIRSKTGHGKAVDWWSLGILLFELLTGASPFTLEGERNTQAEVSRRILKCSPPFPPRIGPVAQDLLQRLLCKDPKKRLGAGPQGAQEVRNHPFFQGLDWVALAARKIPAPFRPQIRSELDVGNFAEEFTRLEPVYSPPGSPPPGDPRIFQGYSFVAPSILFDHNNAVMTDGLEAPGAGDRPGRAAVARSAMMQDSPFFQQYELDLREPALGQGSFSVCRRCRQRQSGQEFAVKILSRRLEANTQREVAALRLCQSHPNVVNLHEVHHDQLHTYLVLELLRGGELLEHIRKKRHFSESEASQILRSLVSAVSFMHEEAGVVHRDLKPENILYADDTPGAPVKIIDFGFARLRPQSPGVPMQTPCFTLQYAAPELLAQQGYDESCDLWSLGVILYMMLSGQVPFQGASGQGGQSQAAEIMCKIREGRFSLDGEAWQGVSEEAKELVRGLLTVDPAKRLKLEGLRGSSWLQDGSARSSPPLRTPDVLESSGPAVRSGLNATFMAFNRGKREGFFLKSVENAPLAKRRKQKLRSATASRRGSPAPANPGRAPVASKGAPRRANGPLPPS

TNK2 (human) = TNK2 (human) (UniProt Q07912)
TTK (human) = TTK (human) (UniProt P33981)
WEE1 (human) = WEE1 (human) (UniProt P30291)
ZAP70 (human) = ZAP70 (human) (UniProt P43403)

AKT3 (human), sequence (Q9Y243 whole entry, looked up): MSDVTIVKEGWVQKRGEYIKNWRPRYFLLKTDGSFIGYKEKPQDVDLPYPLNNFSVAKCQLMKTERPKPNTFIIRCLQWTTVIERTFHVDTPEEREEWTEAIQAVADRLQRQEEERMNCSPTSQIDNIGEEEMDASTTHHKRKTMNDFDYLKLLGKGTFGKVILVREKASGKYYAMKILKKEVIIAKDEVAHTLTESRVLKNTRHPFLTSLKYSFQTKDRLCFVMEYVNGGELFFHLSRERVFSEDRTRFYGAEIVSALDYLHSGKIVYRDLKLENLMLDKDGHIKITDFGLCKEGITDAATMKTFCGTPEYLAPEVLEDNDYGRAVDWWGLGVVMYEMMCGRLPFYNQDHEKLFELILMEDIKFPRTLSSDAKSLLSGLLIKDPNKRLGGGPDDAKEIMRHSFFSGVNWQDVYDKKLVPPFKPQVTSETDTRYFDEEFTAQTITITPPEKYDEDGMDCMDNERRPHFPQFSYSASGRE

COc1cc(N2CCN(C)CC2)ccc1Nc1ncc2c(n1)N(C)c1ccccc1C(=O)N2C
kinase still bound, per cent of control (AKT3 (human)): 100%
kinase still bound, per cent of control (AXL (human)): 100%
kinase still bound, per cent of control (BRSK2 (human)): 100%
kinase still bound, per cent of control (BTK (human)): 100%
kinase still bound, per cent of control (CAMKK2 (human)): 15%
kinase still bound, per cent of control (CDC42BPA (human)): 100%
kinase still bound, per cent of control (CDK2 (human)): 100%
kinase still bound, per cent of control (CDK5 (human)): 100%
kinase still bound, per cent of control (CDK7 (human)): 100%
kinase still bound, per cent of control (DDR1 (human)): 100%
kinase still bound, per cent of control (DYRK2 (human)): 100%
kinase still bound, per cent of control (EPHA1 (human)): 100%
kinase still bound, per cent of control (EPHB4 (human)): 100%
kinase still bound, per cent of control (ERN1 (human)): 100%
kinase still bound, per cent of control (FLT3 (human)): 100%
kinase still bound, per cent of control [1]: 100%
kinase still bound, per cent of control (GRK4 (human)): 100%
kinase still bound, per cent of control (IKBKE (human)): 100%
kinase still bound, per cent of control (ITK (human)): 100%
kinase still bound, per cent of control (LCK (human)): 100%
kinase still bound, per cent of control (LIMK1 (human)): 100%
kinase still bound, per cent of control (MAP3K7 (human)): 100%
kinase still bound, per cent of control (MAPK3 (human)): 100%
kinase still bound, per cent of control (MAPK4 (human)): 100%
kinase still bound, per cent of control (MAPK8 (human)): 100%
kinase still bound, per cent of control (MARK4 (human)): 100%
kinase still bound, per cent of control (MELK (human)): 100%
kinase still bound, per cent of control (NIM1 (human)): 100%
kinase still bound, per cent of control (PIK3CB (human)): 100%
kinase still bound, per cent of control (PIM1 (human)): 100%
kinase still bound, per cent of control (PLK4 (human)): 6.8%
kinase still bound, per cent of control (PRKG1 (human)): 100%
kinase still bound, per cent of control [2]: 100%
kinase still bound, per cent of control (RIPK4 (human)): 100%
kinase still bound, per cent of control (RPS6KA4 KD1 (human)): 100%
kinase still bound, per cent of control (TNK2 (human)): 3.2%
kinase still bound, per cent of control (TTK (human)): 26%
kinase still bound, per cent of control (WEE1 (human)): 100%
kinase still bound, per cent of control (ZAP70 (human)): 100%

CCN(CC)CCCCNc1ncc2c(n1)N(C)C(=O)N(c1c(Cl)c(OC)cc(OC)c1Cl)C2
kinase still bound, per cent of control (AKT3 (human)): 100%
kinase still bound, per cent of control (AXL (human)): 100%
kinase still bound, per cent of control (BRSK2 (human)): 100%
kinase still bound, per cent of control (BTK (human)): 100%
kinase still bound, per cent of control (CAMKK2 (human)): 100%
kinase still bound, per cent of control (CDC42BPA (human)): 100%
kinase still bound, per cent of control (CDK2 (human)): 100%
kinase still bound, per cent of control (CDK5 (human)): 100%
kinase still bound, per cent of control (CDK7 (human)): 100%
kinase still bound, per cent of control (DDR1 (human)): 0.15%
kinase still bound, per cent of control (DYRK2 (human)): 100%
kinase still bound, per cent of control (EPHA1 (human)): 100%
kinase still bound, per cent of control (EPHB4 (human)): 100%
kinase still bound, per cent of control (ERN1 (human)): 100%
kinase still bound, per cent of control (FLT3 (human)): 100%
kinase still bound, per cent of control [1]: 100%
kinase still bound, per cent of control (GRK4 (human)): 100%
kinase still bound, per cent of control (IKBKE (human)): 100%
kinase still bound, per cent of control (ITK (human)): 100%
kinase still bound, per cent of control (LCK (human)): 3%
kinase still bound, per cent of control (LIMK1 (human)): 100%
kinase still bound, per cent of control (MAP3K7 (human)): 100%
kinase still bound, per cent of control (MAPK3 (human)): 100%
kinase still bound, per cent of control (MAPK4 (human)): 100%
kinase still bound, per cent of control (MAPK8 (human)): 100%
kinase still bound, per cent of control (MARK4 (human)): 100%
kinase still bound, per cent of control (MELK (human)): 100%
kinase still bound, per cent of control (NIM1 (human)): 100%
kinase still bound, per cent of control (PIK3CB (human)): 100%
kinase still bound, per cent of control (PIM1 (human)): 100%
kinase still bound, per cent of control (PLK4 (human)): 100%
kinase still bound, per cent of control (PRKG1 (human)): 100%
kinase still bound, per cent of control [2]: 100%
kinase still bound, per cent of control (RIPK4 (human)): 100%
kinase still bound, per cent of control (RPS6KA4 KD1 (human)): 100%
kinase still bound, per cent of control (TNK2 (human)): 100%
kinase still bound, per cent of control (TTK (human)): 100%
kinase still bound, per cent of control (WEE1 (human)): 100%
kinase still bound, per cent of control (ZAP70 (human)): 100%

C=CC(=O)Nc1ccc(CN(C(=O)Nc2c(Cl)c(OC)cc(OC)c2Cl)c2cc(Nc3ccc(N4CCN(C)CC4)cc3)ncn2)cc1
kinase still bound, per cent of control (AKT3 (human)): 100%
kinase still bound, per cent of control (AXL (human)): 100%
kinase still bound, per cent of control (BRSK2 (human)): 100%
kinase still bound, per cent of control (BTK (human)): 1.2%
kinase still bound, per cent of control (CAMKK2 (human)): 100%
kinase still bound, per cent of control (CDC42BPA (human)): 100%
kinase still bound, per cent of control (CDK2 (human)): 100%
kinase still bound, per cent of control (CDK5 (human)): 100%
kinase still bound, per cent of control (CDK7 (human)): 100%
kinase still bound, per cent of control (DDR1 (human)): 0%
kinase still bound, per cent of control (EPHA1 (human)): 100%
kinase still bound, per cent of control (EPHB4 (human)): 100%
kinase still bound, per cent of control (FLT3 (human)): 6%
kinase still bound, per cent of control [1]: 16%
kinase still bound, per cent of control (IKBKE (human)): 100%
kinase still bound, per cent of control (ITK (human)): 16%
kinase still bound, per cent of control (LCK (human)): 0.2%
kinase still bound, per cent of control (LIMK1 (human)): 100%
kinase still bound, per cent of control (MAP3K7 (human)): 100%
kinase still bound, per cent of control (MAPK3 (human)): 100%
kinase still bound, per cent of control (MAPK4 (human)): 100%
kinase still bound, per cent of control (MAPK8 (human)): 100%
kinase still bound, per cent of control (MARK4 (human)): 100%
kinase still bound, per cent of control (MELK (human)): 100%
kinase still bound, per cent of control (PIK3CB (human)): 100%
kinase still bound, per cent of control (PIM1 (human)): 100%
kinase still bound, per cent of control (PLK4 (human)): 100%
kinase still bound, per cent of control (PRKG1 (human)): 100%
kinase still bound, per cent of control [2]: 0.4%
kinase still bound, per cent of control (RIPK4 (human)): 100%
kinase still bound, per cent of control (RPS6KA4 KD1 (human)): 100%
kinase still bound, per cent of control (TNK2 (human)): 1.7%
kinase still bound, per cent of control (TTK (human)): 100%
kinase still bound, per cent of control (WEE1 (human)): 100%
kinase still bound, per cent of control (ZAP70 (human)): 100%
